Measurements as given in patent publication US6660910B1, “Selection marker” (Syngenta Mogen B.V., priority 1997, dated 2003).

Assays:
[1] = test system: stem segments of Solanum tuberosum cv. Kardal; experiment: Transformation of potato stem segments with selection on cyanamide or kanamycin; assay type: cell-based; details: Kanamycin 50 mg/l during regeneration; for No. of rooting shoots: rooting medium 30 mg/l kanamycin
Description: Described below is the method used for transformation of stem segments of Solanum tuberosum cv. Kardal using Agrobacterium tumefaciens. Nodal explants from in vitro grown potato plants were used 3 to 8 weeks after transfer. The plants were grown on Multiplication Medium (MUM) under a 16 h light period (1700 lux) at 24° C. and a 8 h dark period at 21° C. (The various media can be found in Table 2). Stem segments of approximately 5 mm were cut on sterile filter paper soaked with Washing Medium (WAM) and collected in a flask containing Washing Medium. For approximately 300 explants the Washing Medium was replaced by Pre cultivation Medium (PRM). The flasks were cultured at 80 rpm at the same culture conditions as described above for approximately 24 h. All binary vectors used in this study contained the nptII gene as a plant selectable marker and the nptIII as bacterial selectable marker. Plasmid pMOG410 additionally harbored a chimeric gus gene containing an intron (Vancanneyt et al. Mol. Gen. Genet., 220, 245-250, 1990). Plasmid pMOG1156 additionally harbored the gus gene and the chimeric cah gene encoding cyanamide hydratase. Plasmid pMOG874 additionally harbored the cah gene. Plasmids were maintained in E.coli and A. tumefaciens under kanamycin selection.
The Agrobacterium strain used in this study harbored a rifampicin selection marker in a C58 chromosomal background. The construction of the helper strain EHA105 is described by Hood et al. (1993), Transg. Res. 2, 208-218.
Agrobacteria were grown overnight in LB medium with antibiotics (rifampicin 20 mg/l, kanamycin 100 mg/l). The overnight culture was diluted to OD600=0.1 and grown to OD600=0.3 in LB without antibiotics in approximately 2 h time. Bacterial suspensions were centrifuged at 1600×g for 15 minutes at room temperature. Bacteria were resuspended in Washing Medium and used for cocultivation experiments. The Pre cultivation Medium was removed from the flasks and replaced by the Agrobacterium suspension. The flasks were incubated for 20 minutes after which the explants were rinsed twice with Washing Medium. The explants were dried on sterile filter paper and incubated for 48 h on plates containing Cocultivation Medium (COM). Then, the explants were transferred to Post cultivation Medium (POM) and incubated for 72 h. The explants were then transferred to Shoot inducing Medium (SIM) containing several concentrations cyanamide or kanamycin. After two weeks the explants were subcultured on the same medium and approximately three weeks later the explants were placed on Shoot elongation Medium (SEM) containing cyanamide or kanamycin as mentioned above. When shoots were large enough to cut they were transferred to Root inducing Medium (RIM). Shoots that were able to root were then transferred to Root inducing Medium containing 50 mg/l cyanamide or 30 mg/l kanamycin. Simultaneously the transgenic nature of the shoots was determined by testing leaflets of the rooted shoots for expression of the gus gene using a histochemical GUS assay. It appeared that for pMOG1156 rooting of transgenic shoots on medium containing cyanamide was completely correlated with expression of the gus gene.

[2] = test system: root segments of Arabidopsis thaliana cv. C24; experiment: Arabidopsis root transformation with selection on cyanamide or kanamycin; assay type: cell-based; details: for Percentage of GUS expressing plants (% of plants staining blue): treatment kanamycin 50 mg/litre; for % Shoots rooting / Nr. of plants (shoots developed into plants and able to root): selection kanamycin 50 mg/litre, rooting medium 25 mg/litre Kanamycin
Description: Described below is the method used for transformation of root segments of Arabidopsis thaliana cv. C24 using Agrobacterium tumefaciens. The binary vectors for this transformation method are identical to those described above.
Six mg of Arabidopsis seeds were germinated in a flask containing liquid Germination Medium (GM) under 16 h light period (1700 lux) at 24° C. and a 8 h dark period at 21° C. at 80 rpm. (The contents of various media can be found in Table 4). Roots of 9 days old seedlings were isolated in a sterile petridish and collected in a drop of Germination Medium (GM). Roots were cut in segments of approximately 3-5 mm and approximately 100 explants were spread evenly on a nylon membrane (O 8 cm) which was placed on plates containing Callus Inducing Medium (CIM). The plates were incubated 3 days under the same conditions as described above.
The Agrobacterium strain used in this study harbored a rifampicin selection marker in a C 58 chromosomal background. The construction of the helper strain MOG101 is described by Hood et al. (1993).
Agrobacteria were grown overnight in LB medium with antibiotics (rifampicin 20 mg/l, kanamycin 100 mg/l). The overnight culture was diluted 1:10 in LB without antibiotics and grown for approximately 3 hours. Bacterial suspensions were centrifuged at 1600×g for 15 minutes at room temperature. Bacteria were resuspended in GM and adjusted to OD600=0.1 and used for cocultivation.
The membrane containing approximately 100 explants was incubated for 2 minutes with the Agrobacterium suspension and dried on sterile filter paper to remove excess of bacteria. The membrane with explants are cultured for 48 h on CIM plates. After rinsing the membrane and explants with liquid GM these were incubated on Shoot Induction Medium (SIM) plates containing several concentrations of cyanamide or kanamycin. After 5 days the membrane with the explants was transferred to the same medium (SIM) for subculture. The second subculture was after 2 weeks. Approximately four weeks after cocultivation 60 shoots per cyanamide concentration were excised and placed on plates with Shoot Elongation Medium (SEM) containing 30 mg/l cyanamide. Shoots which were able to root are tested on their transgenic character by testing leaflets and flowers for expression of the gus gene using a histochemical GUS assay.
Three experiments were performed. Shoots obtained from Exp. 98-8 and 98-11 were transferred to rooting medium (SEM) containing 30 mg/litre cyanamide. Shoots obtained from Exp. 98-13 were transferred to rooting medium containing the same concentration as the selection medium (SIM), for results see Table 4a. The shoots obtained from the kanamycin selection (50 mg/litre) were transferred to rooting medium containing 25 mg/litre Kanamycin.

[3] = pMOG410 (gus-nptII), 58 inoculated explants
[4] = pMOG874 (cah-nptII), 58 inoculated explants
[5] = pMOG1156 (cah-gus-nptII), 48 inoculated explants

NC[C@H]1O[C@H](O[C@H]2[C@H](O)[C@@H](O[C@H]3O[C@H](CO)[C@@H](O)[C@H](N)[C@H]3O)[C@H](N)C[C@@H]2N)[C@H](O)[C@@H](O)[C@@H]1O [Kanamycin]
No. of excised shoots [1, 3]: 24 | No. of gus + shoots [1, 3]: 12 | No. of rooting shoots [1, 3]: 13 | No. of excised shoots [1, 4]: 34 | No. of rooting shoots [1, 4]: 26 | No. of excised shoots [1, 5]: 26 | No. of gus + shoots [1, 5]: 16 | No. of rooting shoots [1, 5]: 16 | Percentage of GUS expressing plants (% of plants staining blue) ([2]; pMOG 410, shoots rooted on Kanamycin 25 mg/litre): 100^2% | % Shoots rooting ([2]; pMOG 1156, Experiment 98-8): 46.8% | Nr. of plants (shoots developed into plants and able to root) ([2]; pMOG 1156, Experiment 98-8): 29 | % Shoots rooting ([2]; pMOG 1156, Experiment 98-11): 47.5% | Nr. of plants (shoots developed into plants and able to root) ([2]; pMOG 1156, Experiment 98-11): 19 | % Shoots rooting ([2]; pMOG 1156, Experiment 98-13): 20.6% | Nr. of plants (shoots developed into plants and able to root) ([2]; pMOG 1156, Experiment 98-13): 14 | Percentage of GUS expressing plants (% of plants staining blue) ([2]; pMOG 1156, column headed C30 in rooting medium): 82-92%
